# Reference: patent publication US7429579B2, “Tetrahydrobenzazepine derivatives useful as modulators of dopamine D3 receptors (antipsychotic agents)” (SmithKline Beecham, PLC, priority 2000, dated 2008)
# Target: T1, dopamine D3 receptor (Homo sapiens, UniProt P35462)
# T1 construct: expressed in transfected cells; host or cells: CHO cells (crude cell membranes)
# Assay: Binding experiments on cloned dopamine receptors: displacement of [125I]-Iodosulpride
# Conditions: cloned human D3 receptor expressed in CHO cells, [125I]-Iodosulpride displacement; pKi accurate to about ±0.2-0.3
# Description: Binding Experiments on Cloned Dopamine (e.g. D2, D3 and D4) Receptors
# Cultures were grown as monolayers or in suspension in standard cell culture media. Cells were recovered by scraping (from monolayers) or by centrifugation (from suspension cultures), and were washed two or three times by suspension in phosphate buffered saline followed by collection by centrifugation. Cell pellets were stored frozen at −80° C. Crude cell membranes were prepared by homogenisation followed by high-speed centrifugation, and characterisation of cloned receptors achieved by radioligand binding.
# Preparation of Cho Cell Membranes: Cell Pellets were Gently Thawed at Room temperature, and resuspended in about 20 volumes of ice-cold Extraction buffer; 5 mM EDTA, 50 mM Trizma pre-set crystals (pH7.4@37° C.), 1 mM MgCl2, 5 mM KCl and 120 mM NaCl. The suspension was homogenised using an Ultra-Turrax at full speed for 15 seconds. The homogenate was centrifuged at 18,000 r.p.m for 15 min at 4° C. in a Sorvall RC5C centrifuge. Supernatant was discarded, and homogenate re-suspended in extraction buffer then centrifugation was repeated. The final pellet was resuspended in 50 mM Trizma pre-set crystals (pH 7.4 @ 37° C.) and stored in 1 ml aliquot tubes at −80° C. (D2=3.0E+08 cells, D3=7.0E+07 cells and D4=1.0E+08 cells).
# The total volume is 0.2 ml and incubated in a water bath at 37° C. for 40 minutes. Following incubation, samples were filtered onto GF/B Unifilters using a Can berra Packard Filtermate, and washed four times with ice-cold 50 mM Trizma pre-set crystals (pH 7.4 @ 37° C.). The radioactivity on the filters was measured using a Canberra Packard Topcount Scintillation counter. […] For competition curves, 10 serial log concentrations of competing cold drug were used (Dilution range: 10 μM-10 pM). Competition curves were analysed using Inflexion, an iterative curve fitting programme in Excel. Results were expressed as pKi values where pKi=−log 10 [Ki].
# T1 sequence (P35462 whole entry): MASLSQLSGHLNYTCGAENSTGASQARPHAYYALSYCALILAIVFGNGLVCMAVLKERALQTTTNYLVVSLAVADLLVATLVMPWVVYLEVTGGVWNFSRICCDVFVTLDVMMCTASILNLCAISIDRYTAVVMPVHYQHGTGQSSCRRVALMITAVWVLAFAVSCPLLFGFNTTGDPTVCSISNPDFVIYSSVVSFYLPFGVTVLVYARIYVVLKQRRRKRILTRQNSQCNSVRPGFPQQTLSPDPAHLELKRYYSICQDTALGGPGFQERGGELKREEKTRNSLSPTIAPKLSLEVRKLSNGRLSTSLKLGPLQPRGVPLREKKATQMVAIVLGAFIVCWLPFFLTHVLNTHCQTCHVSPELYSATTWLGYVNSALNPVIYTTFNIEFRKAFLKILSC
row,Ki [nM],SMILES
1,0.316 to 10,"Cc1cc(-c2ccc3c(c2)CCN(CCCCSc2nnc(-c4ccc5ncccc5c4)n2C)CC3)no1 [Example 176, 7-(5-Methyl-3-isoxazolyl)-3-(4-{[4-methyl-5-(6-quinolinyl)-4H-1,2,4-triazol-3-yl]thio}butyl)-2,3,4,5-tetrahydro-1H-3-benzazepine]"
2,0.316 to 10,"Cn1c(SCCCN2CCc3ccc(S(C)(=O)=O)cc3CC2)nnc1-c1cc2ccccc2[nH]1 [Example 72, 3-(3-{[5-(1H-indol-2-yl)-4-methyl-4H-1,2,4-triazol-3-yl]thio}propyl)-7-(methylsulfonyl)-2,3,4,5-tetrahydro-1H-3-benzazepine]"
3,0.316 to 10,"Cn1c(SCCCN2CCc3ccc(S(=O)(=O)N4CCOCC4)cc3CC2)nnc1-c1ccc(F)cc1F [Example 70, 3-(3-{[5-(2,4-difluorophenyl)-4-methyl-4H-1,2,4-triazol-3-yl]thio}propyl)-7-(4-morpholinylsulfonyl)-2,3,4,5-tetrahydro-1H-3-benzazepine]"
4,0.316 to 10,"Cc1cc(-c2ccc3c(c2)CCN(CCCSc2nnc(-c4ccc5cnccc5n4)n2C)CC3)no1 [Example 146, 7-(5-methyl-3-isoxazolyl)-3-(3-{[4-methyl-5-(1,6-naphthyridin-2-yl)-4H-1,2,4-triazol-3-yl]thio}propyl)-2,3,4,5-tetrahydro-1H-3-benzazepine]"
5,0.316 to 10,"Cc1ccc2c(-c3nnc(SCCCN4CCc5ccc(-c6cc(C)on6)cc5CC4)n3C)ccc(F)c2n1 [Example 137, 3-(3-{[5-(8-fluoro-2-methyl-5-quinolinyl)-4-methyl-4H-1,2,4-triazol-3-yl]thio}propyl)-7-(5-methyl-3-isoxazolyl)-2,3,4,5-tetrahydro-1H-3-benzazepine]"
6,0.316 to 10,"Cc1cc(-c2ccc3c(c2)CCN(CCCSc2nnc(-c4ccc5ncccc5c4)n2C)CC3)no1 [Example 63, 7-(5-methyl-3-isoxazolyl)-3-(3-{[4-methyl-5-(6-quinolinyl)-4H-1,2,4-triazol-3-yl]thio}propyl)-2,3,4,5-tetrahydro-1H-3-benzazepine]"
